The record followed here is patent publication US6953855B2 (priority 1998, dated 2005).

Structures are written as SMILES.

For the experiment, the target named is T1, muscle-type receptors (α1β1γδ subtype in human TE671/RD clonal cells) (Homo sapiens, UniProt P02708+P07510+Q07001).
T1 construct: endogenous in cells; host or cells: human TE671/RD rhabdomyosarcoma cells
T1 sequence (P02708 21-457): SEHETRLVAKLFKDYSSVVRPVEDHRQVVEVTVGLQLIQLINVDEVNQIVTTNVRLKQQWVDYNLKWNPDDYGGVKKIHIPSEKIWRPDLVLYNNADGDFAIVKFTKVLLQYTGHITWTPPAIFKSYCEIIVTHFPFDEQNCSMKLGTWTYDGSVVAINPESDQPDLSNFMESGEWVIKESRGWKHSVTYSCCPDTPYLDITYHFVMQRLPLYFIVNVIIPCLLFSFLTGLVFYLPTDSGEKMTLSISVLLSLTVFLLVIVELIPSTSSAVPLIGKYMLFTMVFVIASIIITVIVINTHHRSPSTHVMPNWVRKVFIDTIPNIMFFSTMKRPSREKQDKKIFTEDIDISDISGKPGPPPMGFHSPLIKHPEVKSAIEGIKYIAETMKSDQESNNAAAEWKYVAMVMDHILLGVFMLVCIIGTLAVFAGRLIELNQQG
T1 sequence (P11230 24-501 partner): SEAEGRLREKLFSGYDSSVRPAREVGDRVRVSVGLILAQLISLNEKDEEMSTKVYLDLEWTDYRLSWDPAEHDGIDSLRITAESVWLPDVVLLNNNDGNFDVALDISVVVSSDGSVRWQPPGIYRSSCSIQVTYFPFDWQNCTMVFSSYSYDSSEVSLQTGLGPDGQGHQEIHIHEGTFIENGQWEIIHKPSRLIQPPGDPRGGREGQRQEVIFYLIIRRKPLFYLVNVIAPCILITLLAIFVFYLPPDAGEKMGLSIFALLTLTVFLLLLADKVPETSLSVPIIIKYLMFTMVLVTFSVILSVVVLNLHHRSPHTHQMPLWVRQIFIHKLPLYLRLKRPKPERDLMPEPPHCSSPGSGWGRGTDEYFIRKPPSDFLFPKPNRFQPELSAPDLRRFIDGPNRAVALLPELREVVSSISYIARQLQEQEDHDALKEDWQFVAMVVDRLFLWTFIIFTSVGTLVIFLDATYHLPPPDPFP
T1 sequence (P07510 23-517): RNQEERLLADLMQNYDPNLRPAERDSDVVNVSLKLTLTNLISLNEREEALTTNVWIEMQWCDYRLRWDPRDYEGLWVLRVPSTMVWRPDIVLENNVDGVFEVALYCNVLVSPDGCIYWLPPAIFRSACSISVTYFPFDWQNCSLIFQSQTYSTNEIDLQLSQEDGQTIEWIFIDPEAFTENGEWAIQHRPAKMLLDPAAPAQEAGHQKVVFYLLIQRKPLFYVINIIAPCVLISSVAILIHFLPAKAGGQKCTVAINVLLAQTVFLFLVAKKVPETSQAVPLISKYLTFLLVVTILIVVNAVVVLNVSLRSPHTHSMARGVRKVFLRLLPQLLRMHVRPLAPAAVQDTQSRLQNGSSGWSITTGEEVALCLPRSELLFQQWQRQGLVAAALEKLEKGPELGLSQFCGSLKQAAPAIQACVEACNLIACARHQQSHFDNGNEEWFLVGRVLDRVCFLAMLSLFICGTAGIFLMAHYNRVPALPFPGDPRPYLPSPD
T1 sequence (Q07001 22-517): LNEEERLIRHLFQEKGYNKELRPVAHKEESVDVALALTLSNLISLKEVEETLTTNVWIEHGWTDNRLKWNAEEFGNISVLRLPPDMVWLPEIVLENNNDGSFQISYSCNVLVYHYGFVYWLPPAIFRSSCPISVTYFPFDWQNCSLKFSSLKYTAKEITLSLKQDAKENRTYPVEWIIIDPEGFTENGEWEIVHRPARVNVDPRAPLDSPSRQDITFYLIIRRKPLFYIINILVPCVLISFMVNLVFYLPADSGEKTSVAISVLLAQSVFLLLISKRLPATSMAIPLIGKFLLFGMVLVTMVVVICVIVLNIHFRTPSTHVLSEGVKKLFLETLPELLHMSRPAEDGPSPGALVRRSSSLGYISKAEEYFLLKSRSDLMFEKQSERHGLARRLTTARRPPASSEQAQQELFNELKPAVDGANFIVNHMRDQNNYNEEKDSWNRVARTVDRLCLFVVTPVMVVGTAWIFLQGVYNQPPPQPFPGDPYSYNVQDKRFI
Put plainly: cell-based. The following applies: read-out: agonist activity, % of nicotine's response (human muscle).
In the case of `O=C(Nc1ccc(Br)cc1)NC1C2CCN(CC2)C1Cc1cccnc1` (centres unmarked) [Compound 20, N-(4-bromophenyl)-N′-(2-((3-pyridinyl)methyl)-1-azabicyclo[2.2.2]oct-3-yl)urea], the activation at 100 µM lay in the range of 1 to 12%.

In the case of `O=C(NC1C2CCN(CC2)C1Cc1cccnc1)c1ccc(Br)cc1` (centres unmarked) [Compound 10, N-(2-((3-pyridinyl)methyl)-1-azabicyclo[2.2.2]oct-3-yl)-4-bromobenzamide], the activation at 100 µM was 1 to 12%. The result for `O=C(NC1C2CCN(CC2)C1Cc1cccnc1)c1ccc(F)cc1` (centres unmarked) [Compound 8, N-(2-((3-pyridinyl)methyl)-1-azabicyclo[2.2.2]oct-3-yl)-4-fluorobenzamide] reads 1 to 12%. With `O=C(Nc1ccc(F)cc1)OC1C2CCN(CC2)C1Cc1cccnc1` (centres unmarked) [Compound 3, 2-((3-pyridinyl)methyl)-1-azabicyclo[2.2.2]oct-3-yl N-(4-fluorophenyl)carbamate] the figure was 1 to 12%. Consider `CN(C)c1ccc(NC(=O)NC2C3CCN(CC3)C2Cc2cccnc2)cc1` (centres unmarked) [Compound 25, N-(4-dimethylaminophenyl)-N′-(2-((3-pyridinyl)methyl)-1-azabicyclo[2.2.2]oct-3-yl)urea], for which the activation at 100 µM lay within 1 to 12%. The result for `CSc1ccc(NC(=O)NC2C3CCN(CC3)C2Cc2cccnc2)cc1` (centres unmarked) [Compound 18, N-(4-methylthiophenyl)-N′-(2-((3-pyridinyl)methyl)-1-azabicyclo[2.2.2]oct-3-yl)urea] reads 1 to 12%. The result for `O=C(C=Cc1ccccc1O)NC1C2CCN(CC2)C1Cc1cccnc1` (centres unmarked) [Compound 34, N-(2-((3-pyridinyl)methyl)-1-azabicyclo[2.2.2]oct-3-yl)-3-(2-hydroxyphenyl)prop-2-enamide] reads 1 to 12%; that for `O=C(Nc1ccccc1)NC1C2CCN(CC2)C1Cc1cccnc1` (centres unmarked) [Compound 16, N-phenyl-N′-(2-((3-pyridinyl)methyl)-1-azabicyclo[2.2.2]oct-3-yl)urea], 1 to 12%; that for `CN(C(=O)Nc1ccccc1)C1C2CCN(CC2)C1Cc1cccnc1` (centres unmarked) [Compound 26, N-phenyl-N′-methyl-N′-(2-((3-pyridinyl)methyl)-1-azabicyclo[2.2.2]oct-3-yl)urea], 1 to 12%. With `CSc1ccc(NC(=O)OC2C3CCN(CC3)C2Cc2cccnc2)cc1` (centres unmarked) [Compound 5, 2-((3-pyridinyl)methyl)-1-azabicyclo[2.2.2]oct-3-yl N-(4-methylthiophenyl)carbamate] the figure was 1 to 12%; with `COc1ccccc1NC(=O)NC1C2CCN(CC2)C1Cc1cccnc1` (centres unmarked) [Compound 21, N-(2-methoxyphenyl)-N′-(2-((3-pyridinyl)methyl)-1-azabicyclo[2.2.2]oct-3-yl)urea], 1 to 12%. `O=C(C=Cc1ccccc1)NC1C2CCN(CC2)C1Cc1cccnc1` (centres unmarked) [Compound 28, N-(2-((3-pyridinyl)methyl)-1-azabicyclo[2.2.2]oct-3-yl)3-phenylprop-2-enamide]: the activation at 100 µM is 1 to 12%. As for `O=C(C=Cc1ccc(Br)cc1)NC1C2CCN(CC2)C1Cc1cccnc1` (centres unmarked) [Compound 30, N-(2-((3-pyridinyl)methyl)-1-azabicyclo[2.2.2]oct-3-yl)-3-(4-bromophenyl)prop-2-enamide], the activation at 100 µM lay in the range of 1 to 12%. Turning to `O=C(NC1C2CCN(CC2)C1Cc1cccnc1)c1ccccc1` (centres unmarked) [Compound 13, N-(2-((3-pyridinyl)methyl)-1-azabicyclo[2.2.2]oct-3-yl)benzamide], the activation at 100 µM lay within 1 to 12%. Turning to `O=C(Nc1cccc(F)c1)NC1C2CCN(CC2)C1Cc1cccnc1` (centres unmarked) [Compound 19, N-(3-fluorophenyl)-N′-(2-((3-pyridinyl)methyl)-1-azabicyclo[2.2.2]oct-3-yl)urea], the activation at 100 µM lay within 1 to 12%. With `O=C(C=Cc1ccccc1F)NC1C2CCN(CC2)C1Cc1cccnc1` (centres unmarked) [Compound 33, N-(2-((3-pyridinyl)methyl)-1-azabicyclo[2.2.2]oct-3-yl)-3-(2-fluorophenyl)prop-2-enamide] the figure was 1 to 12%; with `O=C(Nc1ccc(Cl)c(Cl)c1)NC1C2CCN(CC2)C1Cc1cccnc1` (centres unmarked) [Compound 23, N-(3,4-dichlorophenyl)-N′-(2-((3-pyridinyl)methyl)-1-azabicyclo[2.2.2]oct-3-yl)urea], 1 to 12%. With `COc1cccc(C=CC(=O)NC2C3CCN(CC3)C2Cc2cccnc2)c1` (centres unmarked) [Compound 32, N-(2-((3-pyridinyl)methyl)-1-azabicyclo[2.2.2]oct-3-yl)-3-(3-methoxyphenyl)prop-2-enamide] the figure was 1 to 12%. With `O=C(NC1C2CCN(CC2)C1Cc1cccnc1)c1cccc(Br)c1` (centres unmarked) [Compound 15, N-(2-((3-pyridinyl)methyl)-1-azabicyclo[2.2.2]oct-3-yl)-3-bromobenzamide] the figure was 1 to 12%; with `COc1ccc(NC(=O)OC2C3CCN(CC3)C2Cc2cccnc2)cc1` (centres unmarked) [Compound 4, 2-((3-pyridinyl)methyl)-1-azabicyclo[2.2.2]oct-3-yl N-(4-methoxyphenyl)carbamate], 1 to 12%; with `O=C(C=Cc1ccc(Cl)cc1)NC1C2CCN(CC2)C1Cc1cccnc1` (centres unmarked) [Compound 29, N-(2-((3-pyridinyl)methyl)-1-azabicyclo[2.2.2]oct-3-yl)-3-(4-chlorophenyl)prop-2-enamide], 1 to 12%.

Consider `O=C(Nc1ccc(Oc2ccccc2)cc1)NC1C2CCN(CC2)C1Cc1cccnc1` (centres unmarked) [Compound 17, N-(4-phenoxyphenyl)-N′-(2-((3-pyridinyl)methyl)-1-azabicyclo[2.2.2]oct-3-yl)urea], for which the activation at 100 µM lay within 1 to 12%.

As for `COc1cccc(C(=O)NC2C3CCN(CC3)C2Cc2cccnc2)c1` (centres unmarked) [Compound 14, N-(2-((3-pyridinyl)methyl)-1-azabicyclo[2.2.2]oct-3-yl)-3-methoxybenzamide], the activation at 100 µM lay within 1 to 12%. With `COc1ccc(NC(=O)NC2C3CCN(CC3)C2Cc2cccnc2)cc1` (centres unmarked) [Compound 24, N-(4-methoxyphenyl)-N′-(2-((3-pyridinyl)methyl)-1-azabicyclo[2.2.2]oct-3-yl)urea] the figure was 1 to 12%; with `CN(C(=O)Nc1ccc(Br)cc1)C1C2CCN(CC2)C1Cc1cccnc1` (centres unmarked) [Compound 27, N-(4-bromophenyl)-N′-methyl-N′-(2-((3-pyridinyl)methyl)-1-azabicyclo [2.2.2]oct-3-yl)urea], 1 to 12%; with `O=C(Nc1ccc(Br)cc1)OC1C2CCN(CC2)C1Cc1cccnc1` (centres unmarked) [Compound 1, 2-((3-pyridinyl)methyl)-1-azabicyclo[2.2.2]oct-3-yl N-(4-bromophenyl)carbamate], 1 to 12%.

Consider `O=C(C=Cc1cccc(O)c1)NC1C2CCN(CC2)C1Cc1cccnc1` (centres unmarked) [Compound 31, N-(2-((3-pyridinyl)methyl)-1-azabicyclo[2.2.2]oct-3-yl)-3-(3-hydroxyphenyl)prop-2-enamide], for which the activation at 100 µM lay within 1 to 12%.

With `COc1ccc(NC(=O)NC2C3CCN(CC3)C2Cc2cccnc2)c(OC)c1` (centres unmarked) [Compound 22, N-(2,4-dimethoxyphenyl)-N′-(2-((3-pyridinyl)methyl)-1-azabicyclo[2.2.2]oct-3-yl)urea], the activation at 100 µM was 1 to 12%. The result for `O=C(NC1C2CCN(CC2)C1Cc1cccnc1)c1cc2ccccc2o1` (centres unmarked) [Compound 9, N-(2-((3-pyridinyl)methyl)-1-azabicyclo[2.2.2]oct-3-yl)benzofuran-2-carboxamide] reads 1 to 12%.
